Measured values: patent US8217071B2, “Use of inhibitors of the degradation of p27, in particular Argyrin and derivatives thereof, for the treatment of proliferative diseases” (Helmholtz Zentrum für Infektionsforschung GmbH, priority 2007, dated 2012)
Numbered stars: 1 amine (or outer) side, 2 acyl side, 3 side chain; on linkers, the order of the positions; unused ones are H or OH. Square brackets hold non-standard residues; d marks the D form. Peptide text beside a SMILES is read from it. dAla(ψthiazole) = C[C@@H](N[*:1])c1nc(C(=O)[*:2])cs1; Trp(4-OMe) = COc1cccc2[nH]cc(C[C@H](N)C(=O)O)c12; Dha = C=C(N)C(=O)O; Sar = CNCC(=O)O

Legend:
[1] = tested on: mouse embryonic fibroblasts from p27^kip1 wildtype mice; experiment: Apoptosis (sub-G1 fraction) by flow cytometry in p27 wildtype MEF; type: cell-based; details: for apoptosis in p27 wildtype MEF: sub G1 fraction
Source text: Next the inventors tested whether the stabilization of p27 was indeed required for the apoptosis inducing function of Argyrin A or was merely a consequence of proteasome inhibition. For this the inventors treated immortalized mouse embryonic fibroblasts from p27^kip1 wildtype or knockout mice with Argyrin A or the proteasome inhibitor bortezomib and assayed cell cycle distribution and apoptosis by flow cytometry. […] These differences in sensitivity in response to Argyrin A treatment were not due to differences in the accumulation of other proteasomal substrates in p27 wildtype and knockout cells as p53 and p21 levels increased in both cell lines in response to Argyrin A (FIG. 6B). To extend this observation to human cancer cells the inventors reduced the levels of p27^kip1 in HeLa cells using p27^kip1 specific siRNA.
The results shown are the average numbers for six independent experiments. b+d) Wildtype (b) and p27 knockout (d) MEF were treated with Argyrin A or transfected with siRNAs specific for the β1, β2 or β5 subunit of the proteasome for 24 hours. The graphs show the remaining catalytic activity of the different proteasome subunits after Argyrin A or siRNA treatment compared to an untreated control (n=3). The western blots show the expression of the β1, β2 or β5 subunit of the proteasome in proliferating cells and after treatment with siRNAs for a representative experiment. c+e) Flow cytometric measurements of the number of apoptotic cells (sub-G1 fraction) after Argyrin A or siRNA treatment in wildtype (c) or p27 knockout (E) MEF. f) HeLa cells were treated with Argyrin A or siRNA against p27 or Argyrin A and siRNA against p27 for either 24 or 48 hours.
MTT assays were done as previously described (Sasse, F. et al. Argyrins, immunosuppressive cyclic peptides from myxobacteria. I. Production, isolation, physico-chemical and biological properties. J Antibiot (Tokyo) 55, 543-51 (2002)). TUNEL staining of tissue sections was performed on 10 micrometer sections which were deparafinised and treated as recommended by the manufacturer. (In Situ Cell Death Detection Kit, Fluorescein; ROCHE, Cat #11 684 795 910). Flow cytometric analysis of cultured cells was done using a Becton Dickinson fluorescence cytometer as previously described (Malek, N. P. et al. A mouse knock-in model exposes sequential proteolytic pathways that regulate p27^Kip1 in G1 and S phase. Nature 413, 323-7 (2001)). Analysis of the distribution of cells in the cell cycle and the sub-G1 fraction was done using Cell Quest software. A histone-associated-DNA-fragments ELISA was used to determine the number of apoptotic cells according to manufacturers instructions (Roche #11 774425001).

HUVEC = experiment: In vitro capillary-like tube structure formation on matrigel; type: cell-based, human
Source text: The inventors then asked whether Argyrin A was also able to prevent the formation of capillary like tube structures formed by HUVEC on matrigel, an assay frequently used to test the ability of a compound to interfere with neovascularization. […] The addition of Argyrin A led to a 40% reduction in tube formation in this assay. Importantly transfection of siRNA against p27 protected endothelial cells against the inhibitory activity of Argyrin A. The effects exerted by Bortezomib in this assay were smaller and not rescued by loss of p27. In addition to tube length the inventors also quantitated the number of blood vessel like structures formed by HUVECS after treatment with Argyrin A or bortezomib (FIG. 4F).
Treatment with Argyrin A or bortezomib was started when these tumours reached a volume of 200 mm3. […] (n=8 Argyrin A, n=8 Bortezomib, n=6 PBS/EtOH) b) The pictures show the macroscopic appearance of a xenotransplant tumour after 10 days of treatment with Argyrin A. Note the large necrotic centre of the explanted tumour. c) After a single injection of Argyrin A (0.15 mg/kg bodyweight) or bortezomib (1.0 mg/kg bodyweight) tumours were explanted at the indicated time points and blood vessels in the tumour tissue were co-stained for CD31 and p27. […] Note the swelling of the endothelial cell (“E”) and the occlusion of the lumen (“L”) by erythrocytes after 90 minutes of Argyrin A treatment. The arrow marks the detachment of endothelial cells after 48 h of Argyrin A treatment. […] Tube length (f) and blood vessel like […] structures were determined using photographs of HUVEC cultures. The micrographs show representative examples of HUVEC cultures under the indicated conditions.
Primary microvascular endothelial cells (HMVEC) were isolated from human foreskin. The cells were kept at 37° C. and 10% CO2 in EGM-2 MV from Cambrex which includes the basal medium (EBM-2), FBS, hydrocortisone, hFGF-B, VEGF, R3-IGF, ascorbic acid, hEGF, gentamicin and amphotericin. The effect of argyrin A or bortezomib on in vitro angiogenesis was determined by matrigel capillary-like tube structure formation assay. To examine the effect of the different compounds on in vitro angiogenesis, HMVECs were seeded in 96-well culture plates precoated with Matrigel (BD Biosciences, #354248) and exposed to argyrin A or bortezomib. Enclosed networks of tube structures from three randomly chosen fields were scored under the microscope (Leica, Cambridge, United Kingdom). Pictures were taken with an Axio Vision 3.1 Zeiss camera and scored by determining tube length and the formation of closed vessel like structures.

MCF7 cells = experiment: Gene expression signature (DNA microarray) of MCF7 cells; type: cell-based, human
Procedure: The inventors decided to compare the cellular responses of cells treated with Argyrin A or bortezomib directly. To this end the inventors determined the gene expression signature of MCF7 cells in response to Argyrin A or bortezomib and compared the resulting gene expression profiles. […] As shown in FIG. 2G the gene expression profiles of MCF7 cells which were treated with either bortezomib or Argyrin A differ dramatically. While bortezomib treatment led to changes in the expression of more than 10900 genes, only about 500 genes changed in response to Argyrin A treatment. Among these genes, 311 were affected by both bortezomib and Argyrin A, respectively.
Quality and integrity of the total RNA isolated was controlled by running all samples on an Agilent Technologies 2100 Bioanalyzer (Agilent Technologies; Waldbronn, Germany). For biotin-labelled target synthesis starting from 3 μg of total RNA, reactions were performed using standard protocols supplied by the manufacturer (Affymetrix; Santa Clara, Calif.). In each case 10 μg of labelled cRNA were hybridized to an identical lot of Affymetrix GeneChips HG-U133 2.0 for 16 hours at 45° C. After hybridisation the GeneChips were washed, stained with SA-PE and read using an Affymetrix GeneChip fluidic station and scanner.
Analysis of microarray data was performed using the Affymetrix GCOS 1.2 software. […]

[2] = Argyrin A 1 μM, bortezomib 10 nM

SMILES | apoptosis in p27 wildtype MEF [1] | apoptosis in p27 wildtype MEF ([1]; listed as Bortezomib) | number of blood vessel like structures (HUVEC; [2]) | effect on tube formation compared with Argyrin A (HUVEC; bortezomib 10 nM) | number of genes with changed expression (MCF7 cells) | apoptosis, share of all cells, wildtype fibroblasts ([1]; after 24 hours) [%] | reduction in tube formation (relative length of capillary tubes) (HUVEC; VEGF stimulation, Argyrin A 1 μM) [%]
CC(C)C[C@H](NC(=O)[C@H](Cc1ccccc1)NC(=O)c1cnccn1)B(O)O [bortezomib, reference compound] | massive apoptosis | induced apoptosis | significant reduction | smaller | more than 10900 genes |  | 
C=C1NC(=O)[C@@H](C)NC(=O)CNC(=O)[C@H](Cc2c[nH]c3cccc(OC)c23)NC(=O)[C@H](Cc2c[nH]c3ccccc23)NC(=O)c2csc(n2)[C@@H](C)NC(=O)CN(C)C1=O [Argyrin A] (cyclo(W[Trp(4-OMe)]G[dA][Dha][Sar][dAla(ψthiazole)])) | induced apoptosis |  | significant reduction |  | about 500 genes | 38 | 40
